Here are results for 49 molecules from PubChem BioAssay AID624344 (Sanford-Burnham Center for Chemical Genomics, 2012).

Active and inactive are the calls of the source. No rule for the calls is given here. Square brackets hold non-standard residues; d marks the D form. Peptide text beside a SMILES is read from it. NMeY = CN[C@@H](Cc1ccc(O)cc1)C(=O)O; NMeF = CN[C@@H](Cc1ccccc1)C(=O)O; 2Abz = Nc1ccccc1C(=O)O

In one experiment the test system is Cytotoxicity. The experiment in a line: inhibitors of PAF-induced NFkB signaling in CF airway cells, dose response, cell-based, uHTS hits, panel, cytotoxicity readout (AID 624344). As to conditions: CF bronchial epithelial cells, mean of runs.
Assay in experiment [1]: as above
As to conditions: CF bronchial epithelial cells, PAF-induced NFkB reporter inhibition; with PAF, mean of runs.

For `NC(=Nc1ccccc1)NN=Cc1c[nH]c2ccccc12`, the IC50 in the experiment with Cytotoxicity is 23.3 µM. Besides, the IC50 entry in experiment [1] is “inactive”.
As to `OCCNc1nc(Nc2ccc(Cl)c(Cl)c2)nc2ccccc12`, the IC50 in the experiment with Cytotoxicity is 4.07 µM; in experiment [1], 2.16 µM.
Taken in the same sequence, the figures for `CCOC(=O)Cc1nnc2c(Nc3ccc(Cl)cc3)nc3nonc3n12` were 1.72 µM and 3.23 µM.
For `CC(=O)Nc1ccc(NC(=O)c2nc(S(=O)(=O)Cc3cccc(C)c3)ncc2Cl)cc1` the same measures were 11.5 µM and 5.98 µM.
Consider `CC(C)C[C@@H]1NC(=O)[C@H](Cc2ccccc2)N(C)C(=O)[C@H](C)NC(=O)c2ccccc2NC(=O)[C@H](Cc2ccc(O)cc2)N(C)C1=O` (cyclo([2Abz]A[NMeF]L[NMeY])), for which the IC50 with Cytotoxicity is 6.59 µM; in experiment [1] it was 3.42 µM.
Taken in the same sequence, the figures for `COc1ccc(-c2csc3ncnc(NCCN4CCOCC4)c23)cc1` were 47 µM and 3.79 µM.
Take `C=C1C(=O)OC2CC3(C)OC3CCC(C)=CC(OC(C)=O)C12` (stereo not drawn): the IC50 with Cytotoxicity was 2.35 µM; in experiment [1], 2.27 µM.
As for `N#CC(C#N)c1ccnc2ccccc12`, the IC50 was 28.3 µM in the experiment on Cytotoxicity and 3.17 µM in experiment [1].
For `COc1ccc2c(c1OC)C(=O)OC2Nc1nc(-c2ccccc2)cs1` (stereo not drawn) the same measures were 32.7 µM and 0.66 µM.
For `Clc1ccc(CSc2nnc(-c3ccncc3)o2)cc1` the same measures were > 79 µM (inactive) and 5.92 µM.
Taken in the same sequence, the figures for `O=C(NNc1ccccc1Br)C(O)(c1cccc(C(F)(F)F)c1)c1cccc(C(F)(F)F)c1` were 7.73 µM and 5.72 µM.
In the case of `CCOc1cc2c(cc1O)C(=NO)CC1C2CCC2(C)C(O)CCC12` (stereo not drawn), the values for the 50% inhibitory concentration (IC50) (with Cytotoxicity; in experiment [1]) were 31 µM and 17.5 µM, respectively.
Regarding `CC1(C)CC(=O)C=C(NC2=CC3OC(c4ccccc4)OCC3OC2=O)C1` (stereo not drawn), the values for the IC50 (in the experiment on Cytotoxicity; in experiment [1]) were 16.9 µM and 3.35 µM, respectively.
For the molecule `CC(=O)c1cccc(NC(=O)Nc2cccnc2)c1`, the IC50 is 40.3 µM in the experiment with Cytotoxicity and 0.608 µM in experiment [1].
Taken in the same sequence, the figures for `COc1ccc(CN2C[C@H]3CCCN3c3cc(Br)ccc3S2(=O)=O)cc1` were 61.7 µM (inactive) and 9.73 µM.
For `O=C(NCCc1ccccc1)c1coc(=O)c(Br)c1` the same measures were 11.5 µM and 4.91 µM.
For `CC(C)C[C@H](CO)Nc1nc(Nc2cccc(Cl)c2)c2ncn(C(C)C)c2n1` the same measures were 36.2 µM and 5.12 µM.
Regarding `CC1CCCCN1c1ncnc(N)c1[N+](=O)[O-]` (stereo not drawn), the IC50 in the experiment on Cytotoxicity is > 79 µM (inactive); in experiment [1], 3.66 µM.
For `O=C1Cc2c([nH]c3ccc(Br)cc23)-c2ccccc2N1` the same measures were 16.4 µM and 3.75 µM.
For the molecule `C=CC[C@@H](CC(=O)N(CCO)Cc1ccccc1)C(=O)NC[C@H](OC(=O)[C@@H](CC=C)Cc1ccc(F)cc1)c1ccccc1`, the results for the IC50 (with Cytotoxicity; in experiment [1]) were 4.23 µM and 4.05 µM, respectively.
For `O=S1(=O)CCC(NC(=S)SCCOc2ccccc2)C1` (stereo not drawn) the same measures were 20.1 µM and 4.58 µM.
Taken in the same sequence, the figures for `COc1ccccc1-n1nnnc1S(=O)(=O)Cc1ccc(Cl)cc1` were 2.44 µM and 1.28 µM.
Turning to `CCOc1ccc(-n2cc(-c3ccccc3)c3c(N4CCOCC4)ncnc32)cc1`, the half-maximal inhibitory concentration (IC50) in the experiment with Cytotoxicity was 7.28 µM; in experiment [1] it was 3.99 µM.
On to `COc1ccc(CNc2nn3c(-c4cccc(C(=O)N(C)C)c4)cnc3s2)cc1`, for which the IC50 with Cytotoxicity is 33.6 µM; in experiment [1] it was 2.46 µM.
Taken in the same sequence, the figures for `Clc1ccc(Cn2ncc3c(N4CCN(c5ccccc5)CC4)ncnc32)cc1` were 5.17 µM and 4.7 µM.
Turning to `CC(C)n1c(SCc2ccccc2F)nc2c1c(=O)n(C)c(=O)n2C`, the IC50 in the experiment on Cytotoxicity is > 79 µM (inactive); in experiment [1], 7.01 µM.
For the molecule `CC(=O)Nc1ccc(-c2ccnc3c2CC(C(=O)NCc2ccccc2)O3)cc1` (stereo not drawn), the IC50 (in the experiment with Cytotoxicity; in experiment [1]) was > 79 µM (inactive) each time.
In the case of `COc1ccc(-n2nnnc2C(c2cccc(OC)c2OC)N2CCC(n3c(=O)[nH]c4ccccc43)CC2)cc1` (stereo not drawn), the IC50 is 9.39 µM in the experiment on Cytotoxicity and 6.65 µM in experiment [1].
For `COc1ccc(-c2cc(=O)oc3c(C)c(OC(=O)c4cccs4)ccc23)cc1` the same measures were > 79 µM (inactive) and 1.6 µM.
For `C=CCN(CC=C)c1ncnc2[nH]ncc12` the same measures were > 79 µM (inactive) and 1.24 µM.
In the case of `CC1CCc2c(sc3ncnc(N4CCOCC4)c23)C1` (stereo not drawn), the IC50 was 20.4 µM with Cytotoxicity and 4.1 µM in experiment [1].
Taken in the same sequence, the figures for `O=C(COc1ccc(Cl)cc1)Nc1ncc([N+](=O)[O-])s1` were 3.32 µM and 1.02 µM.
For `OCCCNc1ncnc2scc(-c3ccc(Cl)cc3)c12` the same measures were 32.6 µM and 2.35 µM.
As for `CCOC(=O)C1=C(CC)Nc2ccccc2N=C1NC(=O)c1oc2ccccc2c1C`, the IC50 is 6.1 µM in the experiment with Cytotoxicity and 4.43 µM in experiment [1].
Take `COc1ccc(S(=O)(=O)N2c3ccc(F)cc3CCC2C)cc1` (stereo not drawn): the IC50 with Cytotoxicity was > 79 µM (inactive). The IC50 result in experiment [1] is “inactive”.
Take `Cc1cc2cc(CCNC(=O)C(=O)c3c[nH]c4ccccc34)c(=O)[nH]c2cc1C`: the IC50 with Cytotoxicity is 24.3 µM; in experiment [1] it was 5.72 µM.
As to `C=Cc1ccc(CC2(C)C(=O)Nc3ccc(-c4cccnc4)cc32)cc1` (stereo not drawn), the IC50 in the experiment with Cytotoxicity was 41.9 µM; in experiment [1], 3.36 µM.
In the case of `O=C(CN1C(=O)CCC1=O)Nc1nc(-c2nc3ccccc3s2)cs1`, the IC50 in the experiment with Cytotoxicity was > 79 µM (inactive); in experiment [1] it was 4.92 µM.
On to `c1cc(-c2cnc3cccnn23)c2cccnc2c1`, for which the IC50 with Cytotoxicity was > 79 µM (inactive); in experiment [1], 2.33 µM.
For `CCCc1nnc(NC(=O)c2nc(S(=O)(=O)Cc3ccc(C)cc3)ncc2Cl)s1` the same measures were 3.08 µM and 1.23 µM.
With `C=C(C)[C@@H]1CCC2(C(=O)O)CC[C@]3(C)[C@H](CC[C@@H]4[C@@]5(C)CCC(=O)C(C)(C)[C@@H]5CC[C@]43C)[C@@H]12` (stereo partly drawn), the IC50 is 12.9 µM with Cytotoxicity and 8.27 µM in experiment [1].
Taken in the same sequence, the figures for `COc1cccc(N2CCN(c3c(C#N)c(C(F)(F)F)nn3C)CC2)c1` were 58.4 µM (inactive) and 2.27 µM.
For `O=C(c1[nH]c(C(F)(F)F)nc1-c1ccccc1)N1CCN(c2c(Cl)cncc2Cl)CC1` the same measures were > 79 µM (inactive) and 10.4 µM.
For `NC(=O)c1sc2nc3c(c(-c4ccccc4)c2c1N)CCC3` the same measures were 60.1 µM (inactive) and 1.17 µM.
Consider `O=C(NCCCSc1ccccc1)c1cc(Br)ccc1O`, for which the IC50 in the experiment with Cytotoxicity is 3.05 µM; in experiment [1], 4.8 µM.
On to `Nc1ncc(-c2ccccc2)c(-c2ccc(O)cc2O)n1`, for which the results for the IC50 (in the experiment with Cytotoxicity; in experiment [1]) were > 79 µM (inactive) and 4.01 µM, respectively.
Consider `O=C1OC(Nc2nc(-c3ccc(F)cc3)cs2)c2ccccc21` (stereo not drawn), for which the IC50 with Cytotoxicity was 10.7 µM; in experiment [1], 2.31 µM.
Take `Nc1nc(N)nc(-c2ccc(Cl)c(Cl)c2)n1`: the IC50 in the experiment on Cytotoxicity is 20.3 µM; in experiment [1], 2.78 µM.
For `Cc1ccccc1S(=O)(=O)Cc1ccc(C(=O)N2CCN(c3cccc(C)c3C)CC2)o1` the same measures were 25 µM and 11 µM.

The IC50 is the concentration at which inhibition is half-maximal.
